{"source": "patent US20040023972A1", "about": "“Use of substituted imidazo[1,2-a]-pyridin-, -pyrimidin-and-pyrazin-3-yl-amine derivatives in the preparation of medicaments for inhibiting NOS” (Gruenenthal GmbH, priority 2000, published 2004)", "note": "Where a name gives a salt, the structure may show the parent alone."}
{"target": "T1, NO synthase (Rattus norvegicus, UniProt P29476)", "T1 construct": "the supernatant was then removed by decantation and frozen in portions at −80° C; from tissue; host or cells: rat cerebellum, 20,000 g supernatant of homogenate", "test": "HTS-NOS assay (NOS assay): conversion of radioactive arginine, cation-exchanger filter plate", "assay_type": "biochemical", "conditions": "10 μM", "summary_of_the_method": "(§1)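 Rat cerebellum supernatant as NOS source, incubated with radiolabelled arginine plus cofactors including NADPH at 25 °C for 5-60 min depending on enzyme activity. Unconverted arginine was trapped on a cation-exchange filter plate, citrulline washed out, and bound arginine counted by scintillation; % inhibition versus no-compound reactions.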", "units": {"HTS-NOS assay: % inhibition (10 μM)": "%"}}
{"compound": "C#[N+]CCCCCCNc1c(-c2cccc3ccccc23)nc2cc(C)ccn12", "note": "[Example 122, Methylidyne-[6-(7-methyl-2-naphthalen-1-yl-imidazo[1,2-a]pyridin-3-ylamino)-hexyl]-ammonium]", "HTS-NOS assay: % inhibition (10 μM)": 53}
{"target": "T1, NO synthase", "test": "HTS-NOS assay (NOS assay): conversion of radioactive arginine, cation-exchanger filter plate", "assay_type": "biochemical", "conditions": "read-out: HTS-NOS assay: % inhibition (10 μM)", "summary_of_the_method": "as §1", "units": {"inhibition at 10 µM": "%"}}
{"compound": "CCCCN(C(C)=O)c1c(-c2cc(OC)c(OC)c(OC)c2)nc2cnccn12", "note": "[Example 283, N-butyl-N-[2-(3,4,5-trimethoxy-phenyl)-imidazo[1,2-a]pyrazin-3-yl]-acetamide]", "inhibition at 10 µM": 51}
{"compound": "CC(=O)N(c1c(C2CCCCC2)nc2cc(C)cc(C)n12)C(C)(C)C", "note": "[Example 157, N-tert-butyl-N-(2-cyclohexyl-5,7-dimethyl-imidazo[1,2-a]pyridin-3-yl)-acetamide]", "inhibition at 10 µM": 63}
{"compound": "CCc1ccn2c(Nc3ccc(F)c(Cl)c3)c(-c3ccc(C)o3)nc2c1", "note": "[Example 317, (3-Chloro-4-fluoro-phenyl)-[7-ethyl-2-(5-methyl-furan-2-yl)-imidazo[1,2-a]pyridin-3-yl]-amine]", "inhibition at 10 µM": 59}
{"compound": "Cc1cc(C)n2c(NC3CCCCC3)c(-c3ccncc3)nc2c1", "note": "[Example 2, Cyclohexyl-(5,7-dimethyl-2-pyridin-4-yl-imidazo[1,2-a]pyridin-3-yl)-amine]", "inhibition at 10 µM": 62}
{"compound": "CCCCN(C(C)=O)c1c(-c2ccc(C)cc2)nc2ccc(C)cn12", "note": "[Example 280, N-butyl-N-(6-methyl-2-p-tolyl-imidazo[1,2-a]pyridin-3-yl)-acetamide]", "inhibition at 10 µM": 53}
{"target": "NOS (Rattus norvegicus, UniProt P29476)", "test": "Citrulline assay (Bredt and Snyder)", "assay_type": "biochemical", "conditions": "not given", "description": "This assay was carried out as described by D. S. Bredt and S. H. Snyder (Proc. Natl. Acad. Sci. USA (1990), 87, 682-685).", "units": {"IC50": "µM"}}
{"compound": "Cc1ccn2c(NC(C)(C)CC(C)(C)C)c(-c3ccccc3F)nc2c1", "note": "[Example 298, [2-(2-Fluorophenyl)-7-methyl-imidazo[1,2-a]pyridin-3-yl]-(1,1,3,3-tetramethyl-butyl)-amine; hydrochloride]", "IC50": 4.3}
{"compound": "Cc1cc(C)n2c(NC(C)(C)CC(C)(C)C)c(-c3ccco3)nc2c1", "note": "[Example 296, (2-Furan-2-yl-5,7-dimethyl-imidazo[1,2-a]-pyridin-3-yl)-(1,1,3,3-tetramethyl-butyl)-amine; hydrochloride]", "IC50": 2.5}
{"compound": "Cc1ccn2c(NC3CCCCC3)c(-c3ccccc3C(F)(F)F)nc2c1", "note": "[Example 292, Cyclohexyl-[7-methyl-2-(2-trifluorO-methyl-phenyl)-imidazo[1,2-a]pyridin-3-yl]-amine; hydrochloride]", "IC50": 2.4}
{"compound": "Cc1cc(C)n2c(NC3CCCCC3)c(-c3ccncc3)nc2c1", "note": "[Example 295, Cyclohexyl-(5,7-dimethyl-2-pyridin-4-yl-imidazo[1,2-a]pyridin-3-yl)-amine; hydrochloride]", "IC50": 9.2}
